The target in assay [1] is T1, human MCHR1 (Homo sapiens, UniProt Q99705).
T1 construct: expressed in transfected cells; host or cells: CHO cell clone 57 (membrane fraction)
The assay can be described thus: Human MCH receptor 1 (MCHR1) binding inhibitory activity, [125I]-MCH(4-19) binding assay with MCHR1-expressing CHO cellular membrane fraction. The note with it: test compound 0.1 μM, human MCHR1-expressing CHO cell membrane, read-out: Binding inhibition rate % (0.1 μM). On the procedure: Using human MCHR1(=SLC-1 receptor)-expressing CHO cell clone 57 described in WO01/82925, MCHR1-expressing CHO cellular membrane fractions were prepared by the following method. […] Homogenate buffer (10 mL, 10 mM NaHCO3, 5 mM EDTA, pH 7.5, 0.5 mM PMSF (phenylmethylsulfonyl fluoride), 20 mg/L leupeptin, 4 mg/L E-64, 1 mg/L pepstatin A) was added to the pellets of the cells and, using Polytron Homogenizer, the mixture was homogenated. The supernatant obtained after centrifugation at 400×g for 10 min was further centrifuged at 100,000×g for 1 hr to give precipitate of the membrane fraction. The precipitate were suspended in 2 mL of assay buffer [20 mM Tris-HCl (pH 7.5), 5 mM EDTA, 0.5 mM PMSF, 20 mg/L leupeptin, 4 mg/L E-64, 1 mg/L pepstatin A]. The membrane fractions were suspended in assay buffer to a protein concentration of 2 mg/mL, and after dispensing, preserved at −80° C. and used upon thawing each time when in use. The MCHR1 ligand binding inhibitory activity of the test compound was determined as follows. An MCHR1-expressing CHO cellular membrane fraction (173 μL) diluted with an assay buffer was dispensed to a 96 well polypropylene plate (3363, Corning). […] Using a treating glass filter plate (GF/C, PerkinElmer) with polyethyleneimine, which had been previously set, the plate was suction-filtered and washed three times with washing buffer (50 mM Tris-HCl buffer pH 7.5). The glass filter plate was dried, MicroScinti0 (PerkinElmer) was added at 25 μL/well, and the resulting radioactivity was measured by TopCount liquid scintillation counter (PerkinElmer). The binding inhibition rate of the test compound was calculated by the following formula.

Assay [2] concerns the target T1, human MCHR1. The assay can be described thus: MCH receptor 1 antagonistic activity, Ca2+ mobilization assay in human MCHR1-expressing CHO cells (clone #4). Format: cell-based. The note with it: test compound 0.1 μM, ligand MCH(4-19) 2 nM, read-out: Inhibition rate % (0.1 μM). On the procedure:
Measurement of MCH Receptor 1 Antagonistic Activity of Test Compound Using Ca^2+ Mobilization Assay
Using an expression vector plasmid introduced with human MCHR1 gene for expression in animal cells, human MCHR1 gene was introduced into CHO cells (CHO dhfr^−) by Lipofectamine LTX (Invitrogen). The cells were cultured in selection MEMα medium [445 mL of MEMα medium without nucleic acid and added with 5 mL of Penicillin-Streptomycin (Invitrogen) and 50 mL of dialyzed fetal bovine serum]. Colony 24 clones grown in the selection medium, which were human MCHR1 gene-expressing CHO cell candidates, were selected. […] In the following test, this human MCHR1-expressing CHO cell (clone #4) was used. An integrated dispensing function fluorometer (CellLux, PerkinElmer) was used for Ca^2+ mobilization assay. The CHO cells were sown in a 96 well plate (type 3904, Corning) with a black wall and clear well bottom at a density of 20000 cells/well, and cultured in an incubator for about 24 hr at 5% CO2, 37° C. The medium was removed, and the cells were washed with phosphate buffered saline (PBS). A Ca^2+ indicator dye reagent (DOJINDO LABORATORIES, Ca screening no-wash kit Fluo4) was added at 100 μL/well, and the dye was allowed to penetrate into the cell for 30 min in an incubator at 5% CO2, 37° C. The plate was set on a plate reader. First, a test compound solution diluted with an assay buffer [10 mM HEPES (pH 7.4), 1× assay buffer containing 0.1% BSA (DOJINDO LABORATORIES, attached to Ca screening no-wash kit Fluo4)] or DMSO solution was added at 50 μL/well, and then ligand MCH (4-19) peptide (final concentration 2 nM) diluted with assay buffer or DMSO was added at 50 μL/well, during which changes in intracellular fluorescence were measured at 2 second intervals. […]
The inhibition rates (%) of test compounds (0.1 μM) as antagonist activity measured using human MCHR1-expressing CHO cells (clone #4) are shown in the following Table 3.
A general note: Calcium assays in cells follow changes in intracellular calcium, usually with a dye or a luminescent sensor.

Data on 4 molecules can be found in patent publication US9440987B2, “Aromatic ring compound” (TAKEDA PHARMACEUTICAL COMPANY LIMITED, priority 2012, dated 2016).

As usually defined, the inhibition is the drop in the measured response relative to a control, in per cent.

T1 sequence (Q99705 whole entry): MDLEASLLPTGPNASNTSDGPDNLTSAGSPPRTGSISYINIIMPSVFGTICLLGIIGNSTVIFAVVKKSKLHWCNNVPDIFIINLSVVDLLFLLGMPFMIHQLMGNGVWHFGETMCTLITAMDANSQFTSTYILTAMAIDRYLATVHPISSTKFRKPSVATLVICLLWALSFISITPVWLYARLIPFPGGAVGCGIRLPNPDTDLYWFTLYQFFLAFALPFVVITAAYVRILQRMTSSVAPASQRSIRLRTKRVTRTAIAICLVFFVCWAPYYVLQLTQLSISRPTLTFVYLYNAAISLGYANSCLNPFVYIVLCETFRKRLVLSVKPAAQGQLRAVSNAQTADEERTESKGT

Consider `Cn1c([C@H]2C[C@H]2C(C)(C)O)nc2ccc(-n3ccc4oc(-c5ccc(Cl)cc5)cc4c3=O)cc21` (racemic) [Example 4, 2-(4-Chlorophenyl)-5-(2-((1RS,2SR)-2-(2-hydroxypropan-2-yl)cyclopropyl)-1-methyl-1H-benzimidazol-6-yl)furo[3,2-c]pyridin-4(5H)-one], for which the inhibition at 0.1 µM in assay [1] was 91%.
As for `Cc1c(C2CC2)nc2ccc(-n3ccc4oc(-c5ccc(Cl)cc5)cc4c3=O)cn12` [Example 1, 2-(4-Chlorophenyl)-5-(2-cyclopropyl-3-methylimidazo[1,2-a]pyridin-6-yl)furo[3,2-c]pyridin-4(5H)-one], the inhibition at 0.1 µM in assay [1] was 100%; in assay [2] it was 82%.
On the same counts, the results for `Cn1c(C2CC2)nc2ccc(-n3ccc4oc(-c5ccc(Cl)cc5)cc4c3=O)cc21` [Example 2, 2-(4-Chlorophenyl)-5-(2-cyclopropyl-1-methyl-1H-benzimidazol-6-yl)furo[3,2-c]pyridin-4(5H)-one] are 79% and 70%.
The corresponding values for `Cc1c(C2CC2)nc2ccc(-n3ccc4oc(-c5ccc(Cl)cn5)cc4c3=O)cn12` [Example 3, 2-(5-Chloropyridin-2-yl)-5-(2-cyclopropyl-3-methylimidazo[1,2-a]pyridin-6-yl)furo[3,2-c]pyridin-4(5H)-one] are 74% and 92%.
